In paper PMC11313788, “A Series of Novel 1-H-isoindole-1,3(2H)-dione Derivatives as Acetylcholinesterase and Butyrylcholinesterase Inhibitors: In Silico, Synthesis and In Vitro Studies” (Molecules, 2024):

Key:
[1] = target: T1, acetylcholinesterase (AChE) from electrophorus electricus (Electrophorus electricus, UniProt O42275); test: biochemical; type: biochemical; conditions: for IC50: Ellman's method, 96-well plate, enzyme with compound incubated 20 min at 37 °C, phosphate buffer pH 8.0, three measurements; for Selectivity AChE: ratio of the IC50 values (BuChE/AChE), definition not given
T1 construct: purchased Sigma-Aldrich
T1 sequence (O42275 24-633): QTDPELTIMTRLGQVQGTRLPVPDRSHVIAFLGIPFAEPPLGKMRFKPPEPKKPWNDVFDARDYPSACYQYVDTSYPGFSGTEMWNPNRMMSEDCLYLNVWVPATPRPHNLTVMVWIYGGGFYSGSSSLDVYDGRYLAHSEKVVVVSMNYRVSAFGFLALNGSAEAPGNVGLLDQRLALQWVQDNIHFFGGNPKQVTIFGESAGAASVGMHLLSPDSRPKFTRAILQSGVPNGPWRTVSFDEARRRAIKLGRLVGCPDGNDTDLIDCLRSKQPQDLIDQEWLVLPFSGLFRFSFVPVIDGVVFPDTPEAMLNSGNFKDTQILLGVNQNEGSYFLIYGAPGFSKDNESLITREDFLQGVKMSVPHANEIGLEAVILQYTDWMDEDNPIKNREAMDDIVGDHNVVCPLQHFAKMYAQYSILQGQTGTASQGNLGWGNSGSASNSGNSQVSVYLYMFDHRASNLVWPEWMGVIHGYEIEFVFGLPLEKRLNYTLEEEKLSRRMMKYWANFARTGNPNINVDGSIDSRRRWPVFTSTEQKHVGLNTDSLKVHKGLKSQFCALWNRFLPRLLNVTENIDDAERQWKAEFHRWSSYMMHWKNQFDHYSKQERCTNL
Description: (§1) To determine the inhibitory properties of the tested compounds against acetylcholinesterase and butyrylcholinesterase, Ellman’s method was used. […] For each system, measurements were carried out three times. Dose–response curve functions were fitted to the obtained results.
(§2) The following reagents were used to evaluate the inhibiting activity: acetylcholinesterase (AChE) from electrophorus electricus (Sigma-Aldrich, Saint Louis, MO, USA), butyrylcholinesterase (BuChE) from horse serum, acetylthiocholine iodide (Sigma-Aldrich, Saint Louis, MO, USA), butyrylthiocholine iodide (Sigma-Aldrich, Saint Louis, MO, USA), 5,5′-Dithiobis-(2-nitrobenzoic acid) (DTNB, Sigma-Aldrich, Saint Louis, MO, USA). The enzymes were prepared by dissolving in phosphate buffer, pH = 8.0) with the final concentration 2 U/mL for AChE and 4 U/mL for BuChE. The stock solutions of acetylthiocholine iodide (10^−3 mol/dm^3), butyrylthiocholine iodide (10^−3 mol/dm^3) and DTNB (10^−3 mol/dm^3) were prepared in phosphate buffer. The inhibitory activity of derivatives was evaluated by Ellman’s colorimetric method in a 96-well plate. First, the enzyme solution with the tested compound was incubated for 20 min at 37 °C. Next, acetylthiocholine iodide or butyrylthiocholine iodide and DTNB were added.

[2] = target: T2, butyrylcholinesterase (BuChE) from horse serum (Equus caballus, UniProt P81908); test: biochemical; conditions: for IC50: Ellman's method, 96-well plate, enzyme with compound incubated 20 min at 37 °C, phosphate buffer pH 8.0, three measurements; for Selectivity BuChE: ratio of the IC50 values (AChE/BuChE), definition not given
T2 construct: butyrylcholinesterase (BuChE) from horse serum; from tissue; host or cells: horse serum
T2 sequence (P81908 whole entry): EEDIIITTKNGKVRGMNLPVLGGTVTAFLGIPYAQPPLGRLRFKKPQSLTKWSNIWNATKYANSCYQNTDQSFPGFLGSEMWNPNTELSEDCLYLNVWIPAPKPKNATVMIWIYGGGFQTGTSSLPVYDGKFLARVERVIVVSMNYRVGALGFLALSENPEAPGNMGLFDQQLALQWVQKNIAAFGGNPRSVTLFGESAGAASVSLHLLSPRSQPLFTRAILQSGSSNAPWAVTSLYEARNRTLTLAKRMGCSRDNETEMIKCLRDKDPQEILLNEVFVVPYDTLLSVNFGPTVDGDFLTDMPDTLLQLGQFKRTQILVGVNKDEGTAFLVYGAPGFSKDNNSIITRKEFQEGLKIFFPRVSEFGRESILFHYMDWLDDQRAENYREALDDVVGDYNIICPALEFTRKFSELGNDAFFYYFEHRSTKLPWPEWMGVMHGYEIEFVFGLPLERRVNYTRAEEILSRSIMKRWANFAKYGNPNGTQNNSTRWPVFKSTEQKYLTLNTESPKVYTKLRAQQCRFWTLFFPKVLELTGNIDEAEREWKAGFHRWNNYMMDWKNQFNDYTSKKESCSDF
Description: as §1, §2

| SMILES | IC50 [1] | Selectivity AChE [1] | IC50 [2] | Selectivity BuChE [2] | AChE inhibitory activity compared to derivative I ([1]; compared to the derivative with a benzene ring (I)) |
| --- | --- | --- | --- | --- | --- |
| O=C1c2ccccc2C(=O)N1CCN1CCN(c2ccccc2)CC1 [Compound I, N-[2-(4-phenyl-1-piperazinyl)ethyl]-1H-isoindole-1,3(2H)-dione] | 1.12 ± 0.3 µM | 22.02 | 24.7 ± 1.74 µM | 0.05 |  |
| O=C1c2ccccc2C(=O)N1CCN1CCOCC1 [Compound V, N-(2-morpholine)ethyl-1H-isoindole-1,3(2H)-dione] | 16.2 ± 2.37 µM |  | > 1000 µM |  |  |
| O=C1c2ccccc2C(=O)N1CCN1CCc2ccccc2C1 [Compound VI] | 1.14 ± 0.17 µM | 45.71 | 52.1 ± 9.73 µM | 0.02 |  |
| O=C1c2ccccc2C(=O)N1CCN1CCN(c2ccc(C(F)(F)F)cc2)CC1 [II, N-{2-[4-(4-trifluoromethylphenyl)-1-piperazinyl]ethyl}-1H-isoindole-1,3(2H)-dione] | 2.31 ± 0.36 µM | 10.70 | 24.7 ± 3.78 µM | 0.09 |  |
| O=C1c2ccccc2C(=O)N1CCN1CCN(C(c2ccccc2)c2ccccc2)CC1 [III, N-{2-[4-(4-diphenylomethylo)-1-piperazinyl]ethyl}-1H-isoindole-1,3(2H)-dione] | 1.94 ± 0.43 µM | 10.95 | 21.2 ± 4.84 µM | 0.09 |  |
| O=C1c2ccccc2C(=O)N1CCN1CCN(c2ncccn2)CC1 [IV] | 3.9 ± 0.43 µM | 17.66 | 68.9 ± 7.82 µM | 0.06 | about four-times less activity |
